Reference: patent US11972843B2, “Systems and methods for predicting adverse events and assessing level of sedation during medical procedures” (Massachusetts Institute of Technology, priority 2015, dated 2024)

System: patients receiving propofol during procedural sedation
Conditions: 23 patients; per patient, average of the pharmacokinetic-model effect-site concentrations at end of procedure with all boluses and with the last bolus removed
Excerpt: The start and end of the procedure were marked by the clinical staff who collected the data. The average of the “all drugs” value and the “last drug removed” value at the time of the end of the procedure constitutes, in this illustrative embodiment, an estimate of the titration threshold that the clinician aims to remain above between the start and end of the procedure.
The titration threshold for each patient was established as described in connection with FIG. 17, namely: the start and end of the procedure were marked by the clinical staff who collected the data; the end-procedure effect-site concentration, shown on the y-axis, of each patient was estimated with all drug administrations, and again without the final bolus administration; and the average of these two values was taken as the estimated titration threshold for that patient. […] The titration threshold is estimated at the time the procedure ends since the proceduralist deems it necessary to administer a final bolus in order to render the patient's sedation level sufficient to endure the procedure.

SMILES: CC(C)c1cccc(C(C)C)c1O [propofol]
- mean of the estimated titration thresholds (end-procedure effect-site concentration): 1.72 micrograms/milliliter
